# Reference: BindingDB's records for doi:10.7270/Q2Z31X2S (Nmmlsc, 2009)
# Biological target: Cell division control protein 42 homolog (Homo sapiens, UniProt P60953)
# Assay: inhibition of fluorescent GTP binding to Cdc42 wt – biochemical, bead-based multiplex flow cytometry, additional SAR set, SAR follow-up (AID 2022)
# [1] = inactive by the depositor's call
# Cell division control protein 42 homolog, sequence (P60953 whole entry): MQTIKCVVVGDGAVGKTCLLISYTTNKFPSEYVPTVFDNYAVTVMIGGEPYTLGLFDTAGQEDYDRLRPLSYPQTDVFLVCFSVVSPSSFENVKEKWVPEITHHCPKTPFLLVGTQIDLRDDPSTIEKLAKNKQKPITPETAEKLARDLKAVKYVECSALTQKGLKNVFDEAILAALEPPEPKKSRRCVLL
SMILES,EC50 [µM],EC50 [1] [µM]
O=C1Nc2c(Cl)cccc2C1=C1Nc2ccccc2C1=O,0.027,–
O=C1Nc2c(Br)cccc2C1=C1Nc2ccccc2C1=O,> 30,–
O=C1Nc2c(F)cccc2C1=C1Nc2ccccc2C1=O,> 30,–
O=C1NC(=O)/C(=C2/C(=O)Nc3ccccc32)N1,> 30,–
O=C1Nc2cccc(Br)c2/C1=C1/Cc2ccccc2C1=O,> 30,–
O=C1Nc2ccc(Br)cc2C1=C1Nc2ccccc2C1=O,> 30,–
COc1ccc(S(=O)(=O)n2c(N)c(C#N)c(-c3ccccc3)c2C(=O)c2ccc(Br)cc2)cc1,> 30,–
O=[N+]([O-])c1ccc(C#Cc2ccccc2)cc1,> 30,–
O=C(C#Cc1ccccc1)c1ccc(OC(F)(F)F)cc1,> 30,–
COc1ccc(C(=O)C#Cc2ccccc2)cc1 [1-(4-methoxyphenyl)-3-phenyl-2-propyn-1-one],> 30,–
O=C(C#Cc1ccccc1)c1ccc([N+](=O)[O-])cc1 [1-(4-nitrophenyl)-3-phenyl-2-propyn-1-one],> 30,–
CC(C(=O)O)c1cccc(C(=O)c2ccccc2)c1 (stereo not given) [2-(3-benzoylphenyl)propanoic acid],> 30,–
COc1ccc2cc(CC(=O)O)ccc2c1 [2-(6-methoxynaphthalen-2-yl)ethanoic acid],> 30,–
CC(=O)Oc1ccccc1C(=O)O [2-(acetyloxy)benzoic acid],> 30,–
"O=C1Nc2ccccc2/C1=C1/Nc2ccccc2C1=O [2-[(3Z)-2-oxo-2,3-dihydro-1H-indol-3-ylidene]-2,3-dihydro-1H-indol-3-one]",> 30,–
"CCCCS(=O)(=O)n1c(N)c(C#N)c(-c2cc(OC)c(OC)c(OC)c2)c1C(=O)c1ccccc1 [2-amino-5-benzoyl-1-butylsulfonyl-4-(3,4,5-trimethoxyphenyl)-3-pyrrolecarbonitrile]",> 30,–
COc1ccc(S(=O)(=O)n2c(N)c(C#N)c(-c3cncc(Br)c3)c2C(=O)c2ccccc2)cc1 [2-amino-5-benzoyl-4-(5-bromo-3-pyridinyl)-1-(4-methoxyphenyl)sulfonyl-3-pyrrolecarbonitrile],22.8,–
COc1ccc(-c2c(C#N)c(N)n(S(C)(=O)=O)c2C(=O)c2ccccc2)cc1Br [2-azanyl-4-(3-bromanyl-4-methoxy-phenyl)-1-methylsulfonyl-5-(phenylcarbonyl)pyrrole-3-carbonitrile],–,11.2
"COc1cc(-c2c(C#N)c(N)n(S(=O)(=O)c3c(C(C)C)cc(C(C)C)cc3C(C)C)c2C(=O)c2ccccc2)cc(OC)c1OC [2-azanyl-5-(phenylcarbonyl)-4-(3,4,5-trimethoxyphenyl)-1-[2,4,6-tri(propan-2-yl)phenyl]sulfonyl-pyrrole-3-carbonitrile]",> 30,–
O=C1N=c2ccccc2=C1c1[nH]c2ccccc2c1NO [3-[3-(hydroxyamino)-1H-indol-2-yl]-2-indolone],> 30,–

SMILES,EC50 [µM],EC50 [1] [µM]
O=C(C#Cc1ccccc1)c1cccnc1 [3-phenyl-1-pyridin-3-ylprop-2-yn-1-one],> 30,–
COC(=O)c1ccc(C(=O)C#Cc2ccccc2)cc1 [4-(1-oxo-3-phenylprop-2-ynyl)benzoic acid methyl ester],> 30,–
N#Cc1ccc(C(=O)C#Cc2ccccc2)cc1 [4-(3-phenylprop-2-ynoyl)benzenecarbonitrile],> 30,–
O=C1N=c2ccc(Br)cc2=C1c1[nH]c2ccccc2c1NO [5-bromanyl-3-[3-(oxidanylamino)-1H-indol-2-yl]indol-2-one],> 30,–
O=C1N=c2c(Br)cccc2=C1c1[nH]c2ccccc2c1NO [7-bromanyl-3-[3-(oxidanylamino)-1H-indol-2-yl]indol-2-one],> 30,–
O=C1N=c2c(Cl)cccc2=C1c1[nH]c2ccccc2c1NO [7-chloro-3-[3-(hydroxyamino)-1H-indol-2-yl]-2-indolone],> 30,–
O=C1N=c2c(F)cccc2=C1c1[nH]c2ccccc2c1NO [7-fluoro-3-[3-(hydroxyamino)-1H-indol-2-yl]-2-indolone],28.1,–
O=C1Nc2c(Br)cccc2/C1=C1/Cc2ccccc2C1=O [(3E)-7-bromo-3-(3-oxo-1H-inden-2-ylidene)-1H-indol-2-one],> 30,–
O=C1NC(=S)N/C1=C1\C(=O)Nc2ccccc21 [(3Z)-3-(5-oxo-2-sulfanylideneimidazolidin-4-ylidene)-1H-indol-2-one],> 30,–
CC(C)Cc1ccc([C@H](C)C(=O)O)cc1 [(S)-2-(4-Isobutyl-phenyl)-propionic acid],–,16.6
O=C1Nc2ccccc2/C1=C1/Cc2ccccc2C1=O [UNM-0000305763],> 30,–
N#Cc1c(-c2ccc(Cl)cc2)c(C(=O)c2ccccc2)n(S(=O)(=O)c2ccc([N+](=O)[O-])cc2)c1N [UNM-0000305780],–,7.21
COc1ccc(S(=O)(=O)n2c(N)c(C#N)c(-c3cc(Br)c(OC)c(OC)c3)c2C(=O)c2ccccc2)cc1 [UNM-0000305782],> 30,–
O=C(C#Cc1ccccc1)c1ccccc1[N+](=O)[O-] [UNM-0000306038],> 30,–
O=C(C#Cc1ccccc1)c1ccccc1 [UNM-0000306039],> 30,–
O=C(C#Cc1ccccc1)c1ccc(Cl)cc1 [UNM-0000306055],> 30,–
O=C(C#Cc1ccccc1)c1ccc(F)cc1 [UNM-0000306059],> 30,–
CC1=C(CC(=O)O)c2cc(F)ccc2/C1=C/c1ccc([S+](C)[O-])cc1 (stereo not given) [UNM-0000306136],> 30,–
C[C@@H](C(=O)O)c1cccc(Oc2ccccc2)c1 [calcium;2-(3-phenoxyphenyl)propanoic acid;hydrate],> 30,–
CSc1ccc(/C=C2/C(C)=C(CC(=O)O)c3cc(F)ccc32)cc1 [{6-Fluoro-2-methyl-3-[1-(4-methylsulfanyl-phenyl)-meth-(E)-ylidene]-3H-inden-1-yl}-acetic acid],> 30,–
